The NIST ThermoML archive (doi:10.1016/j.fluid.2013.12.015)
± gives the expanded uncertainty stated by the source.

Details: Liquid, Closed cell (Static) method

Structure (SMILES)	vapor or sublimation pressure (283.15 K)	vapor or sublimation pressure (293.15 K)	vapor or sublimation pressure (303.15 K)	vapor or sublimation pressure (313.15 K)	vapor or sublimation pressure (323.15 K)
C=C(F)C(F)(F)F [2,3,3,3-tetrafluoro-1-propene]	436.5 ± 7 kPa	591 ± 7.1 kPa	780.5 ± 7.1 kPa	1015.6 ± 7.2 kPa	1300.7 ± 7.2 kPa
CC(C)C [2-methylpropane]	222.2 ± 7 kPa	303.3 ± 7 kPa	406 ± 7 kPa	530.3 ± 7 kPa	684.4 ± 7.1 kPa
